From patent US10071963B2, “Polymorphic form of N-[2-(6-fluoro-1H-indol-3-yl)ethyl]-3-(2,2,3,3-tetrafluoropropoxy)benzylamine hydrochloride for the treatment of Alzheimer's disease” (H. Lundbeck A/S, priority 2014, dated 2018)

Legend:
Assay type in all cases: physicochemical
[1] = Relative stability of polymorphic form I, II and III (competitive slurry in saturated solution); conditions: II and III in equal amounts, hydrochloride
Experimental: A saturated solution was prepared by heating 1.6 mL isopropyl acetate and 0.4 mL heptane to 70° C. and adding 50 mg of polymorphic form I of N-[2-(6-fluoro-1H-indol-3-yl)ethyl]-3-(2,2,3,3-tetrafluoropropoxy)benzylamine hydrochloride.
The supernatant was divided into two ampoules and kept at 60° C. and 70° C.
5 mg of polymorphic form I, II and III of N-[2-(6-fluoro-1H-indol-3-yl)ethyl]-3-(2,2,3,3-tetrafluoropropoxy)benzylamine hydrochloride was added to the 60° C. solution and left stirring at 60° C. for one and four days, respectively.
2.5 mg of polymorphic form I, II and III of N-[2-(6-fluoro-1H-indol-3-yl)ethyl]-3-(2,2,3,3-tetrafluoropropoxy)benzylamine hydrochloride was added to the 70° C. solution and left without stirring at 70° C. for three days.

[2] = Slurry experiments of polymorphic form I in solvents, solid evaluated by XRPD; conditions: no solvate formed, hydrochloride
Experimental: 6 mL of a solvent or solvent mixture is added into a glass vial together with polymorphic form I of N-[2-(6-fluoro-1H-indol-3-yl)ethyl]-3-(2,2,3,3-tetrafluoropropoxy)benzylamine hydrochloride. The added amount of compound is determined by the expected solubility in the relevant solvent or solvent system. If a clear solution is obtained anti-solvent and/or additional polymorphic form I of N-[2-(6-fluoro-1H-indol-3-yl)ethyl]-3-(2,2,3,3-tetrafluoropropoxy)benzylamine hydrochlorideis added until it is a suspension at the relevant temperature. The suspension is slurred for a prolonged period of time. The result of the slurry experiment is evaluated by filtering off the solid material and measuring XRPD on the isolated solid.
(§1) 6 mL of a toluene/acetonitrile (4:1) solvent mixture was added into a glass vial and 100 mg polymorphic form I of N-[2-(6-fluoro-1H-indol-3-yl)ethyl]-3-(2,2,3,3-tetrafluoropropoxy)benzylamine hydrochloride was added. The resulting suspension was heated to 50° C. A clear solution was obtained and another 50 mg was added. The suspension was stirred for one month at 50° C. Polymorphic form III of N-[2-(6-fluoro-1H-indol-3-yl)ethyl]-3-(2,2,3,3-tetrafluoropropoxy)benzylamine hydrochloride was obtained as evaluated by XRPD.
as §1, with “an acetone/heptane (1:4)” for “a toluene/acetonitrile (4:1)”, “C.” for “C. A clear solution was obtained and another 50 mg was added.”, “week” for “month”
6 mL of a methanol/toluene (1:9) solvent mixture was added into a glass vial and 100 mg polymorphic form I of N-[2-(6-fluoro-1H-indol-3-yl)ethyl]-3-(2,2,3,3-tetrafluoropropoxy)benzylamine hydrochloride was added. After stirring another 1 mL of the anti-solvent (toluene) was added +50 mg polymorphic form I of N-[2-(6-fluoro-1H-indol-3-yl)ethyl]-3-(2,2,3,3-tetrafluoropropoxy)benzylamine hydrochloride. […] To the 4 mL solutions another 1 mL of toluene was added and additional 50 mg polymorphic form I of N-[2-(6-fluoro-1H-indol-3-yl)ethyl]-3-(2,2,3,3-tetrafluoropropoxy)benzylamine hydrochloride. The resulting suspension was heated to 50° C. A clear solution was obtained and substance was added until a suspension was obtained. The suspension was stirred for one week at 50° C. Polymorphic form III of N-[2-(6-fluoro-1H-indol-3-yl)ethyl]-3-(2,2,3,3-tetrafluoropropoxy)benzylamine hydrochloride was obtained as evaluated by XRPD.
6 mL of isopropyl acetate was added into a glass vial and 50 mg polymorphic form I of N-[2-(6-fluoro-1H-indol-3-yl)ethyl]-3-(2,2,3,3-tetrafluoropropoxy)benzylamine hydrochloride was added. The resulting suspension was heated to 50° C. A clear solution was obtained and another 50 mg polymorphic form I of N-[2-(6-fluoro-1H-indol-3-yl)ethyl]-3-(2,2,3,3-tetrafluoropropoxy)benzylamine hydrochloride was added. Substance was added until a suspension was obtained at 50° C. The suspension was stirred for one week at 50° C. Polymorphic form III of N-[2-(6-fluoro-1H-indol-3-yl)ethyl]-3-(2,2,3,3-tetrafluoropropoxy)benzylamine hydrochloride was obtained as evaluated by XRPD.
6 mL of ethyl acetate was added into a glass vial and 150 mg polymorphic form I of N-[2-(6-fluoro-1H-indol-3-yl)ethyl]-3-(2,2,3,3-tetrafluoropropoxy)benzylamine hydrochloride was added. The resulting suspension was heated to 50° C. on a thermal stirrer plate. A clear solution was obtained and 50 mg polymorphic form I of N-[2-(6-fluoro-1H-indol-3-yl)ethyl]-3-(2,2,3,3-tetrafluoropropoxy)benzylamine hydrochloride was added. Polymorphic form I of N-[2-(6-fluoro-1H-indol-3-yl)ethyl]-3-(2,2,3,3-tetrafluoropropoxy)benzylamine hydrochloride was added until a suspension was obtained. The suspension was stirred for one month at 50° C. […]

[3] = Thermodynamic solubility in organic solvents; conditions: room temperature (about 23° C.); for Solubility: HPLC at 217 nm, hydrochloride
Experimental: Thermodynamic solubility of polymorphic form I and III of N-[2-(6-fluoro-1H-indol-3-yl)ethyl]-3-(2,2,3,3-tetrafluoropropoxy)benzylamine hydrochloride was measured by shaking an excess amount of the two polymorphic forms in the organic solvent in a sealed container at room temperature (about 23° C.). After equilibrium was attained, a sample was withdrawn, the solid filtered or centrifuged off and the clear filtrate/supernatant was assayed by HPLC at 217 nm. The precipitate was evaluated by XRPD to determine the polymorphic form.

[4] = 70° C., without stirring, three days
[5] = isopropyl acetate, 60° C., one and four days

Relative thermodynamic stability of the polymorphic forms [1, 4] | Relative thermodynamic stability of the polymorphic forms [1, 5] | Solubility ([3]; 2-butanol) | Solubility ([3]; Isopropanol) | Solubility ([3]; Isopropyl acetate) | SMILES | Transformation on slurrying / relative solubility and thermodynamic stability ([2]; slurried at 5° C.) | Transformation on slurrying / relative solubility and thermodynamic stability ([2]; slurried at 25° C.) | Transformation on slurrying / relative solubility and thermodynamic stability ([2]; slurried at 50° C.) | Relative solubility and thermodynamic stability ([3]; organic solvents, compared with polymorphic form I)
thermodynamically stable | thermodynamically stable | – | – | – | Cl.Fc1ccc2c(CCNCc3cccc(OCC(F)(F)C(F)F)c3)c[nH]c2c1 [polymorphic form II, N-[2-(6-fluoro-1H-indol-3-yl)ethyl]-3-(2,2,3,3-tetrafluoropropoxy)benzylamine hydrochloride] | – | – | – | –
– | less stable than polymorphic form III | 10.5 mg base/mL | 25.2 mg base/mL | 3.4 mg base/mL | Cl.Fc1ccc2c(CCNCc3cccc(OCC(F)(F)C(F)F)c3)c[nH]c2c1 [polymorphic form I, N-[2-(6-fluoro-1H-indol-3-yl)ethyl]-3-(2,2,3,3-tetrafluoropropoxy)benzylamine hydrochloride] | transformed into polymorphic form III | transformed into polymorphic form III | transformed into polymorphic form III | –
vanished | transforming into polymorphic form II | 9.3 mg base/mL | 24.5 mg base/mL | 3.0 mg base/mL | Cl.Fc1ccc2c(CCNCc3cccc(OCC(F)(F)C(F)F)c3)c[nH]c2c1 [polymorphic form III, N-[2-(6-fluoro-1H-indol-3-yl)ethyl]-3-(2,2,3,3-tetrafluoropropoxy)benzylamine hydrochloride] | less soluble and therefore thermodynamically stable | less soluble and therefore thermodynamically stable | less soluble and therefore thermodynamically stable | slightly less soluble and therefore thermodynamically stable
